From patent publication US12344879B2, “Transgenic bacteria with expanded amino acid usage and nucleic acid molecules for use in the same” (BOARD OF REGENTS, THE UNIVERSITY OF TEXAS SYSTEM, priority 2015, dated 2025)

B1: tRNA^UG: tRNA^Sec derivative with strong EF-Tu binding region from the major E. coli tRNA^Gly (nucleic acid)
chain: GGAAGATGGTCGTCTCCGGTGAGGCGGCTGGACTCTAAATCCAGTTGGGGCCGCCAGCGGTCCCGGCGAGGTTCGACTCCTCGTATCTTCCGCCA
modifications: expressed or natural sequence
B2: FdhH U140S: E. coli formate dehydrogenase H with serine in place of selenocysteine 140 (protein, UniProt P07658 1-715, looked up, variant U140S)
Formate dehydrogenase H: MKKVVTVCPYCASGCKINLVVDNGKIVRAEAAQGKTNQGTLCLKGYYGWDFINDTQILTPRLKTPMIRRQRGGKLEPVSWDEALNYVAERLSAIKEKYGPDAIQTTGSSRGTGNETNYVMQKFARAVIGTNNVDCCARVSHGPSVAGLHQSVGNGAMSNAINEIDNTDLVFVFGYNPADSHPIVANHVINAKRNGAKIIVCDPRKIETARIADMHIALKNGSNIALLNAMGHVIIEENLYDKAFVASRTEGFEEYRKIVEGYTPESVEDITGVSASEIRQAARMYAQAKSAAILWGMGVTQFYQGVETVRSLTSLAMLTGNLGKPHAGVNPVRGQNNVQGACDMGALPDTYPGYQYVKDPANREKFAKAWGVESLPAHTGYRISELPHRAAHGEVRAAYIMGEDPLQTDAELSAVRKAFEDLELVIVQDIFMTKTASAADVILPSTSWGEHEGVFTAADRGFQRFFKAVEPKWDLKTDWQIISEIATRMGYPMHYNNTQEIWDELRHLCPDFYGATYEKMGELGFIQWPCRDTSDADQGTSYLFKEKFDTPNGLAQFFTCDWVAPIDKLTDEYPMVLSTVREVGHYSCRSMTGNCAALAALADEPGYAQINTEDAKRLGIEDEALVWVHSRKGKIITRAQVSDRPNKGAIYMTYQWWIGACNELVTENLSPITKTPEYKYCAVRVEPIADQRAAEQYVIDEYNKLKTRLREAALA

Columns and labels:
[1] = tested on: human cellular glutathione peroxidase (GPx-1) codon 49; experiment: Selenocysteine incorporation into GPx-1 U49 by intact mass spectrometry; parameters: species or system E. coli RTΔA.2; settings: GPx-1 U49, pGPx-U49-AU and pRSF-eSelAK
Method: RTΔA.2 transformants containing pGPx-U49-AU and pRSF-eSelAK were cultured as described previously for azurin. Cells were harvested by centrifugation and resuspended in 50 mL of buffer (50 mM Potassium Phosphate, 150 mM NaCl, 10% glycerol, 1 mM DTT at pH 8.0) and lysozyme at 1 mg·mL^−1. Cells were lysed by sonication and clarified prior to GPx-1 recovery by IMAC. Eluate was concentrated and dialyzed against 100 mM phosphate buffer pH 8.0, 0.1% Tween 20 and 1 mM DTT followed by isolation of GPx-1 by anion exchange chromatography (Q HP column). GPx-1 was produced with a yield of 500 μg·L^−1 and close to 100% selenocysteine incorporation efficiency.
Intact protein samples were analyzed using methods described previously (Ellefson et al., 2014). Azurin, DHFR and GPx-1 samples were buffer exchanged into LC-MS grade water using 10 kDa molecular weight cutoff filters. Once the buffer exchange was complete the samples were diluted to 20 μM in a methanol/water/formic acid (50/49/1) solution. […] UVPD mass spectra were also deconvoluted using Xtract and then analyzed using ProsightPC 3.0. […] Incorporation efficiencies were calculated by dividing the area of the modified protein peak by the summed areas of the unmodified protein peak and the modified protein peak. […]

[2] = tested on: NMC-A β-lactamase reporter (C69X); experiment: NMC-A β-lactamase reporter assay (ampicillin resistance by amber suppression with selenocysteine); format: cell-based, E. coli DHΔabc; settings: NMC-A C69X reporter, DHΔabc
Source text: A method of genetic selection capable of discriminating different levels of selenocysteine incorporation was developed. To specifically ‘addict’ a reporter protein to selenocysteine rather than serine, the NMC-A β-lactamase from Enterobacter cloacae was used. […] Then cysteine 69 was replaced with an amber stop codon (X69; FIG. 1a) for library selection, hypothesizing that the incorporation of selenocysteine and the formation of a selenyl-sulfhydryl bond would restore activity. (Swardn et al., 1998)
To eliminate any crosstalk between the tRNA^Sec library and the endogenous selenocysteine incorporation machinery, the selA, selB and selC genes (encoding SelA, SelB and tRNA^Sec respectively) were deleted from E. coli DH10B (designated DHΔabc). Cells containing the reporter plasmid pNMC-A C69X and the accessory plasmid pRSF-eSelA (expressing SelA) were transformed with plasmid pMB1-ZU containing the tRNA^Sec antideterminant library. Transformants were plated on media containing a gradient of ampicillin concentrations for selection of mutants capable of selenocysteine-specific suppression. The single colonies that arose covered a range of ampicillin concentrations. […] Of these tRNA^Sec variants, only G7-C66:U49-G65:C50-U64 was detected at the two highest ampicillin concentration (200 and 250 μg·ml^−1).
The tRNA^Sec antideterminant library was generated by enzymatic inverse PCR using oligonucleotide primers (Table 2) to randomize the six positions identified as the main antideterminant for EF-Tu binding. Following self ligation for 16 hours, DNA was ethanol precipitated with GlycoBlue (Ambion) and transformed by electroporation into E. coli DHΔabc containing the plasmids pNMC-A C69X and pRSF-eSelA. Transformants were diluted in 200 ml LB medium containing 12.5 μg·mL^−1 Zeocin, 6.25 μg·mL^−1 tetracycline and 25 μg·mL^−1 kanamycin and incubated overnight. Following overnight growth, cells were diluted 1/50 in LB medium containing 6.25 μg·mL^−1 Zeocin, 3.75 μg·mL^−1 tetracycline, 12.5 μg·mL^−1 kanamycin, 1 μM Na2SeO3 and 20 μg·mL^−1 L-cysteine and incubated for one hour. A series of 250 μl aliquots of cells were plated on LB agar containing 6.25 μg·mL^−1 Zeocin, 3.75 μg·mL^−1 tetracycline, 12.5 […], 1 μM Na2SeO3 and 20 μg·mL^−1 L-cysteine and 50-300 μg·mL^−1 ampicillin in 50 μg·mL^−1 increments. After 20 hours at 37° C. individual colonies were observed on plates containing 50-200 μg·mL^−1 ampicillin. Plasmid DNA was isolated from a selection of colonies from all plates and tRNA^Sec mutations determined by Sanger sequencing.
NotI/NcoI fragments containing tRNA^SecUx were subcloned into pRSF-eSelA to generate pRSF-UX-eSelA. pRSF-U-eSelA variants described in Table 1 were transformed into E. coli DHΔabc containing the reporter plasmid pNMC-A C69TAG. DHΔabc cells containing pNMC-A and pRSFDuet-1 were used as a positive control. DHΔabc cells harboring pNMC-A C69S and pRSF-UX-eSelA, and pNMC-A C69TAG and pRSF-UX-ΔSelA were used as controls for selenocysteine dependent β-lactamase activity. Transformants were cultured overnight in LB medium containing 6.25 μg·mL^−1 tetracycline, 25 μg·mL^−1 kanamycin, 1 μM Na2SeO3 and 20 […]. Following overnight growth, cells were diluted 1/10 in LB medium containing antibiotics, selenite and L-cysteine and incubated for three hours. […]

[3] = tested on: E. coli formate dehydrogenase H (FdhH); experiment: Benzyl viologen assay; format: cell-based, E. coli DHΔabcF; settings: FdhH U140TAG or U140S reporter, co-expressed with SelA, anaerobic
Method: The tRNA^Sec variant containing the G7-C66:U49-G65:C50-U64 (SEQ ID NO: 18) antideterminant sequence was designated tRNA^SecUx and was compared with the previously designed chimera (tRNA^UTu) and with a tRNA^Sec derivative designed to have an antideterminant region that should tightly bind EF-Tu (tRNA^UG; FIG. 2a). […] The hybrid tRNA^UTu incorporated selenocysteine and could grow on 75 μg·ml^−1. […] To further confirm tRNA^SecUx incorporated selenocysteine in response to amber stop codons, a standard colorimetric assay was employed based on the activity of the endogenous E. coli selenoprotein formate dehydrogenase H (FdhH) (FIG. 2b).
E. coli DH10B cells containing pRSFDuet-1 and pcat-pheS were used as a positive control. DHΔabcF cells harboring p15A-fdhF U140S and pRSF-UX-eSelA, and p15A-fdhF U140X and pRSF-UX-ΔSelA were used as controls for selenocysteine dependent formate dehydrogenase activity. Transformants were grown overnight at 37° C. in LB medium supplemented with 12.5 μg·mL^−1 tetracycline and 50 μg·mL^−1 kanamycin. Overnight cultures were diluted 1/20 in a final volume of 2 ml and incubated for three hours. Cultures were normalized to OD600=0.5 and 5 μl aliquots were dotted on LB agar plates containing 3.75 μg·mL^−1 tetracycline, 12.5 μg·mL^−1 kanamycin, 5 mM sodium formate, 10 μM Na2MoO4, 1 μM Na2SeO3 and 20 μg·mL^−1 L-cysteine. Plates were incubated at 37° C. for 3 h under aerobic conditions and then transferred to anaerobic conditions at 37° C. for 60 h. Upon removal from the anaerobic chamber, plates were immediately overlaid with agar containing 1 mg·mL^−1 benzyl viologen, 250 mM sodium formate and 25 mM KH2PO4 at pH 7.0. Plates were photographed within 1 h of overlaying.

Molecule | production of active β-lactamase [2] | other results
GPx-1: Recombinant human cellular glutathione peroxidase with selenocysteine at codon 49 | – | selenocysteine incorporation efficiency in GPx-1 [1]: ~100%
tRNA^SecCUA: Parental E. coli tRNA^Sec containing a CUA anticodon [reference compound] | failed to produce active β-lactamase | –
B1 | failed to produce active β-lactamase | –
B2 | – | FdhH activity (reduction of benzyl viologen) [3]: completely inactive
